Laboratory results taken from paper PMC12008195 (Scientific Reports, 2025).

Legend:
HepG-2 cells [1] = test: Cell cycle analysis, propidium iodide flow cytometry; assay type: cell-based, human; conditions: 3b at 6 µM
Bcl-2 = test: RT-PCR gene expression of Bcl-2 in HepG-2 cells; assay type: cell-based, human; conditions: versus untreated cells
HepG-2 cells [2] = test: Annexin-V/propidium iodide staining assay; assay type: cell-based, human
[3] = test system: HCT-116 (human colon cancer); conditions: read-out: IC50 HCT-116; MTT, 24-hour exposure; cited from earlier work
[4] = test system: HepG2 (hepatocellular carcinoma); conditions: read-out: IC50 HepG-2; MTT, 24-hour exposure; cited from earlier work
[5] = test system: MCF-7 (mammary gland breast cancer); conditions: read-out: IC50 MCF-7; MTT, 24-hour exposure; cited from earlier work
[6] = test system: WI-38 (human lung fibroblasts); conditions: read-out: IC50 WI-38 human fibroblasts; MTT, normal non-cancer cells; cited from earlier work
[7] = cited from earlier work

Question: Which results are given for Cc1cc2c(cc1C)N[C@H](c1ccccc1)[C@@H](O)C(=O)N2 [Compound 3b, (3R,4R)−3-hydroxy-7,8-dimethyl-4-phenyl-1,3,4,5-tetrahydro-2 H-1,5-benzodiazepin-2-one]?
Answer: Increase of DNA content at G2/M phase compared to non-treated cells (HepG-2 cells [1]): 28%; Gene expression fold change Bcl-2 (Bcl-2): 0.339 fold; Fold increase in the proportion of necrotic cells versus control (HepG-2 cells [2]): 2.6 fold; IC50 [3]: 9.18 µM; IC50 [4]: 6.13 µM; IC50 [5]: 7.86 µM; IC50 [6]: 14 µM; Lipinski's rule of five ([7]; MW ≤ 500 Da, LogP < 5, nHBD ≤ 5, nHBA ≤ 10, TPSA < 140 Å2): satisfied; Predicted oral bioavailability ([7]; in silico studies): good
